According to the NIST ThermoML archive (doi:10.1021/je8003832):

What was measured:
[1] = 101 kPa, Liquid
[2] = xn = mol fraction of the nth substance listed; details: 101 kPa, Liquid, x1 = 1

CCCCn1cc[n+](C)c1.O=S(=O)([O-])C(F)(F)F [1-butyl-3-methylimidazolium trifluoromethanesulfonate]
[1]
Details	mass density [kg/m3]	viscosity [mPa·s]
303.15 K	1298.4	63.19
308.15 K	1294.9	51.73
313.15 K	1291.4	42.46
318.15 K	1287.8	35.17
323.15 K	1284.4	29.55
333.15 K	1277.4	21.61
343.15 K	1270.5	16.38

O [water] + CCCCn1cc[n+](C)c1.O=S(=O)([O-])C(F)(F)F
[2]
Details	mass density [kg/m3]	viscosity [mPa·s]
303.15 K	–	0.7977
308.15 K	–	0.719
313.15 K	–	0.6532
318.15 K	–	0.6001
323.15 K	–	0.547
333.15 K	983.2	0.4665
343.15 K	977.8	0.404
